This is an account of results in patent US20190151351A1, “REGULATORS OF ANAPLASTIC LYMPHOMA KINASE AND USES THEREOF” (Celldex Therapeutics, Inc., priority 2014, published 2019).

The test system of assay [1] is ALK. As to the kind of experiment: SOS inhibition of heparin-induced phosphorylation in NB1 neuroblastoma cells. The assay is classed as cell-based. The conditions noted are these: SOS 0-10 mg/mL along with 10 μg/mL heparin. How it is done: FIG. 4: Heparin induced activation of ALK is inhibited by sucrose-octasulfate (SOS).
NB1 neuroblastoma cells were treated with increasing doses of SOS (0, 0.001, 0.01, 0.1, 1, and 10 mg/mL) along with 10 μg/mL of heparin.

The target in assay [2] is FL-ECD binding to heparin. As to the kind of experiment: SPR competition: inhibition of FL-ECD binding to heparin surface. How it is done: FIG. 8: Sucrose octasulfate (SOS) inhibits ALK binding to heparin in a dose-dependent manner, as measured by SPR. A titration of SOS was pre-incubated with 350 nM of FL-ECD. These complexes were then injected over the heparin surface.
These complexes were then injected over the heparin surface. […] In addition, the IC50 and inhibition constant values indicate a high degree of specificity for the interaction between heparin and ALK.
A BIACORE™ T100 instrument was used at 25° C. using 25 mM Hepes, 300 mM NaCl, 10% Glycerol, pH 7.4. All reagents were dialyzed with this buffer prior to use. Heparin-biotin (Sigma) sold as ≥97% pure was further purified using PD-10 pre-packed columns (GE-Healthcare) to remove free biotin in solution. Heparin-biotin was then immobilized on an assembled NeutrAvidin surface (amine coupled on a CM4 Series-S Biacore chip): three surfaces were produced with different concentrations of immobilized heparin by varying contact time from 48 to 240 s, and excess ligand was removed. Due to the heterogeneous nature of heparins, the surface was a combination of many chain lengths of heparin. Three-fold dilutions of FL-ECD and ΔN-ECD were injected sequentially over a reference surface without heparin and three heparin surfaces. The surface was regenerated between cycles with 2.5 M NaCl, 5 mM Acetic Acid, pH 4.5. For the SOS competition assay, serial dilutions of SOS were pre-incubated with 0.350 μM FL-ECD and then injected over the chip. Data were analyzed using the BiaCore T100 software.

Assay [3] concerns ALK. As to the kind of experiment: Western blot of ALK and AKT phosphorylation in NB1 neuroblastoma cells (heparin dose response, other glycosaminoglycans). The assay is classed as cell-based. As to conditions: heparin 0-100 μg/mL, other glycosaminoglycans at 10 μg/mL. How it is done:
NB1 neuroblastoma cells were treated with increasing doses of heparin (0, 0.001, 0.01, 0.1, 1, 10, 100 μg/mL heparin), and phosphorylation of ALK and AKT was monitored by Western blot analysis. Various glycosaminoglycans at 10 μg/mL were also assessed for their ability to activate ALK. An ALK-agonistic mAb was used as a positive control for pALK and pAKT.
(In general: In western blotting, separated proteins are transferred to a membrane and probed.)

The subject of assay [4] is ALK. As to the kind of experiment: Western blot of ALK and MAPK phosphorylation in NB1 neuroblastoma cells. The class given is cell-based. As to conditions: heparin 10 μg/mL. The procedure: FIG. 2: Heparin, but neither PTN or MK, induces ALK tyrosine phosphorylation. […] An agonistic anti-ALK monoclonal antibody was used as a positive control for activation of ALK and MAPK.
NB1 neuroblastoma cells were treated with heparin (Hep), pleiotrophin (PTN), and midkine (MK) to determine the influence of each on ALK phosphorylation. […] An agonistic anti-ALK monoclonal antibody was used as a positive control for activation of ALK and MAPK.
Target sequence in this assay (Q9UM73 19-222 limits assumed): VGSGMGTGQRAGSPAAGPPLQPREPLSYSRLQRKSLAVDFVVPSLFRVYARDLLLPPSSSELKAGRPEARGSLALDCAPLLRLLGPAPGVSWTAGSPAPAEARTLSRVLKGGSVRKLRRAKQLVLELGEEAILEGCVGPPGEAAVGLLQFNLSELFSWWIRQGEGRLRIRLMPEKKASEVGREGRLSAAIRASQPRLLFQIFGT

Consider `O=S(=O)(O)OC[C@H]1O[C@@](COS(=O)(=O)O)(O[C@H]2O[C@H](COS(=O)(=O)O)[C@@H](OS(=O)(=O)O)[C@H](OS(=O)(=O)O)[C@H]2OS(=O)(=O)O)[C@@H](OS(=O)(=O)O)[C@@H]1OS(=O)(=O)O` [SOS, Sucrose-octasulfate], for which the “inhibition of heparin-induced phosphorylation of ALK, AKT and MAPK” value in assay [1] was “capable of inhibiting heparin-induced phosphorylation of ALK, AKT, and MAPK in a dose dependent manner”. Further, the inhibition constant (Ki) in assay [2] (SPR SOS competition with 350 nM FL-ECD, read-out: inhibition constant (Ki)) is 2250 nM. The half-maximal inhibitory concentration (IC50) in assay [2] (SPR, SOS pre-incubated with 350 nM FL-ECD, Rmax values) amounted to 6.5 µM. Moreover, the Kd in assay [2] (calculated using the Cheng-Prusoff equation, read-out: KD for SOS/FL-ECD binding) is 2250 nM. For the molecule Dextran sulfate, the “phosphorylation of ALK and AKT” value in assay [3] was “induce phosphorylation of ALK and AKT”.

B1: PTN: secreted protein Pleiotrophin, proposed as physiological ALK ligand (protein)
chain: GKKEKPEKKVKKSDCGEWQWSVCVPTSGDCGLGTREGTRTGAECKQTMKTQRCKIPCNWKKQFGAECKYQFQAWGECDLNTALKTRTGSLKRALHNAECQKTVTISKPCGKLTKPKPQAESKKKKKEGKKQEKMLD
Regarding B1, in assay [4], the “ALK (tyrosine) phosphorylation” value is given as “neither PTN nor MK influence ALK phosphorylation”.

B2: MK: secreted protein Midkine, proposed as physiological ALK ligand (protein)
chain: VAKKKDKVKKGGPGSECAEWAWGPCTPSSKDCGVGFREGTCGAQTQRIRCRVPCNWKKEFGADCKYKFENWGACDGGTGTKVRQGTLKKARYNAQCQETIRVTKPCTPKTKAKAKAKKGKGKD
As for B2, the “ALK (tyrosine) phosphorylation” value in assay [4] was “neither PTN nor MK influence ALK phosphorylation”.

Usually Ki stands for the dissociation constant of the complex between target and ligand, obtained from inhibition or displacement. For orientation: IC50 means the concentration that gives 50% inhibition.
